Test results published in US6642392B1 (priority 1997, dated 2003).
Read-outs that look alike come from different tables or passages of the source.

What was measured:
Assay type in all cases: in vivo
[1] = system: Eiysiphe graminis f. sp. tritici; experiment: Test A: wheat powdery mildew, preventive spray on wheat seedlings; details: for Test A disease control rating: wheat powdery mildew; for Test A disease control rating (100 = 100% disease control, 0 = no disease control): wheat seedlings sprayed to run-off, inoculated the following day, rating relative to controls, unmarked compounds (standard test rate)
Method in brief: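 Preventive test: seedlings inoculated with powdery mildew spores one day after run-off spraying of a suspension. Ratings after 7 days in a 20° C growth chamber express percent disease control versus controls.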

Puccinia recondita = experiment: Test B: wheat leaf rust, preventive spray on wheat seedlings; details: for Test B disease control rating: wheat leaf rust; for Test B disease control rating (100 = 100% disease control, 0 = no disease control): wheat seedlings sprayed to run-off, inoculated the following day, rating relative to controls, unmarked compounds (standard test rate)
Method in brief: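 Preventive test: P. recondita spores were applied one day after a run-off spray of compound suspension on wheat seedlings. Plants had 24 h at 20 °C in saturated air plus 6 days in a 20 °C growth chamber. Scoring is % disease control (100 = full) relative to controls.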

Pyricularia oryzae = details: for Test C disease control rating: rice blast; for Test C disease control rating (100 = 100% disease control, 0 = no disease control): rice seedlings sprayed to run-off, inoculated the following day, rating relative to controls, unmarked compounds (standard test rate)
Phytophthora infestans = details: for Test D disease control rating: tomato late blight; for Test D disease control rating (100 = 100% disease control, 0 = no disease control): tomato seedlings sprayed to run-off, inoculated the following day, rating relative to controls, unmarked compounds (standard test rate)
Botrytis cinerea = experiment: Test E: gray mold, preventive spray on cucumber seedlings; details: for Test E disease control rating: gray mold on cucumber; for Test E disease control rating (100 = 100% disease control, 0 = no disease control): cucumber seedlings sprayed to run-off, inoculated the following day, rating relative to controls, unmarked compounds (standard test rate)
Method in brief: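 Preventive spray on cucumber seedlings used a suspension (3% acetone, 250 ppm Trem 014), applied to run-off one day before inoculation with Botrytis cinerea spores. Plants were held 48 h at 20° C in saturated air, then 5 days at 20° C. Percent disease control was scored relative to untreated plants.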

[2] = 100 = 100% disease control, 0 = no control relative to controls, unmarked entries (standard test concentration)
[3] = 100 = 100% disease control, 0 = no control, unmarked entries (standard test concentration)

Compound | Test A disease control rating [1, 2] [%] | Test B disease control rating (Puccinia recondita; [3]) [%] | Test C disease control rating (Pyricularia oryzae; [3]) [%] | Test D disease control rating (Phytophthora infestans; [3]) [%] | Test E disease control rating (Botrytis cinerea; [3]) [%] | Test A disease control rating (100 = 100% disease control, 0 = no disease control) [1] [%] | Test B disease control rating (100 = 100% disease control, 0 = no disease control) (Puccinia recondita) [%] | Test C disease control rating (100 = 100% disease control, 0 = no disease control) (Pyricularia oryzae) [%] | Test D disease control rating (100 = 100% disease control, 0 = no disease control) (Phytophthora infestans) [%] | Test E disease control rating (100 = 100% disease control, 0 = no disease control) (Botrytis cinerea) [%] | also measured
C[C@H](COc1cc(F)cc(F)c1)NC(=O)C(C#N)C(C)(C)C (single isomer, unassigned) [184a] | 62 | 0 | 74 | 0 | 6 |  |  |  |  |  | 
CC(COc1ccccc1C#N)NC(=O)C(C#N)C(C)C(C)(C)C (mixture of isomers) [compound 60] |  |  |  |  |  |  |  |  |  |  | Test A disease control rating ([1]; tested at 40 ppm): 91%; Test B disease control rating (Puccinia recondita; tested at 40 ppm): 0%; Test C disease control rating (Pyricularia oryzae; tested at 40 ppm): 0%; Test D disease control rating (Phytophthora infestans; tested at 40 ppm): 0%; Test E disease control rating (Botrytis cinerea; tested at 40 ppm): 0%
C=CCC(C#N)C(=O)NC(C)C(Oc1cc(F)ccc1F)c1ccccc1 (mixture of isomers) [compound 283] |  |  |  |  |  | 0 | 0 | 99 | 0 | 0 | 
CC(C=Cc1ccccc1C#N)NC(=O)C(C#N)C(C)(C)C (mixture of isomers) [compound 307] |  |  |  |  |  | 36 | 0 | 94 | 0 | 0 | 
CCCc1ccccc1OCC(C)NC(=O)C1(CC)C(C)C1(Cl)Cl (centres unmarked) [98b] |  |  |  |  |  |  |  |  |  |  | Test A disease control rating ([1]; tested at 40 ppm): 52%; Test B disease control rating (Puccinia recondita; tested at 40 ppm): 0%; Test C disease control rating (Pyricularia oryzae; tested at 40 ppm): 74%; Test D disease control rating (Phytophthora infestans; tested at 40 ppm): 0%; Test E disease control rating (Botrytis cinerea; tested at 40 ppm): 0%
CC(COc1ccccc1Cl)NC(=O)C(C#N)C(C)(C)C (mixture of isomers) [5b] | 0 | 86 | 100 | 24 | 0 |  |  |  |  |  | 
C=CCC(C#N)C(=O)NC(C)C(Oc1ccccc1C#N)c1ccccc1 (mixture of isomers) [compound 285] |  |  |  |  |  | 59 | 0 | 97 | 0 | 0 | 
C=CC(C)(CF)C(C#N)C(=O)NC(C)COc1cc(F)ccc1F (mixture of isomers) [compound 218] |  |  |  |  |  | 86 | 68 | 100 | 17 | 0 | 
CCC1(C(=O)NC(C)COc2ccccc2OC(F)(F)C(F)F)C(C)C1(Cl)Cl (mixture of isomers) [compound 90] | 84 | 0 | 32 | 0 | 0 |  |  |  |  |  | 
CC(COc1ccccc1)NC(=O)C1(C)CC1(Cl)Cl (mixture of isomers) [compound 311] |  |  |  |  |  | 84 | 0 | 0 | 0 | 0 | 
CCC1(C(=O)NC(C)COc2cccc(Cl)c2)C(C)C1(Cl)Cl (mixture of isomers) [82a] |  |  |  |  |  |  |  |  |  |  | Test A disease control rating ([1]; tested at 40 ppm): 0%; Test B disease control rating (Puccinia recondita; tested at 40 ppm): 0%; Test C disease control rating (Pyricularia oryzae; tested at 40 ppm): 53%; Test D disease control rating (Phytophthora infestans; tested at 40 ppm): 43%; Test E disease control rating (Botrytis cinerea; tested at 40 ppm): 0%
C[C@H](COc1ccccc1F)NC(=O)C(C#N)C(C)(C)C (single isomer, unassigned) [2c] | 86 | 0 | 100 | 24 | 0 |  |  |  |  |  | 
CCC1(C(=O)NC(C)COc2cc(Cl)c(Cl)cc2Cl)C(C)C1(Cl)Cl (centres unmarked) [compound 242] |  |  |  |  |  | 0 | 0 | 74 | 96 | 0 | 
C[C@H](COc1ccc(F)cc1Cl)NC(=O)C(C#N)C(C)(C)C (single isomer, unassigned) [37b] | 77 | 68 | 99 | 96 | 0 |  |  |  |  |  | 
CCC1(C(=O)NC(C)COc2c(F)c(F)cc(F)c2F)C(C)C1(Cl)Cl (centres unmarked) [compound 249] |  |  |  |  |  | 0 | 0 | 94 | 0 | 0 | 
CC(COc1c(F)cccc1F)NC(=O)C(C#N)C(C)(C)C (mixture of isomers) [29a] | 0 | 0 | 74 | 35 | 6 |  |  |  |  |  | 
CCC1(C(=O)NC(C)COc2ccc(Cl)c(F)c2)C(C)C1(Cl)Cl (centres unmarked) [compound 231] |  |  |  |  |  | 0 | 0 | 97 | 0 | 93 | 
Cc1ccc(OC[C@@H](C)NC(=O)C(C#N)C(C)(C)C)c(Cl)c1 (single isomer, unassigned) [14a] | 0 | 0 | 94 | 45 | 58 |  |  |  |  |  | 
CCc1ccccc1OCC(C)NC(=O)C(C#N)C(C)(C)C (mixture of isomers) [20a] | 63 | 0 | 97 | 70 | 0 |  |  |  |  |  | 
C[C@H](COc1cc(F)ccc1Cl)NC(=O)C(C#N)C(C)(C)C (single isomer, unassigned) [191a] | 0 | 0 | 100 | 25 | 85 |  |  |  |  |  | 
CCc1ccccc1OCC(C)NC(=O)C(C#N)C(C)(C)C (mixture of isomers) [20b] | 0 | 0 | 100 | 0 | 0 |  |  |  |  |  | 
CC(COc1c(F)ccc(F)c1C#N)NC(=O)C(C#N)C(C)C(C)(C)C (mixture of isomers) [compound 279] |  |  |  |  |  | 56 | 0 | 0 | 0 | 0 | 
